The nature of the data set: Storage stability of reagent 7 and its Boc and salt forms. The class given is physicochemical. The text has this:
The synthesis of reagent 7-salt is described in Scheme 1. The phenolic oxygen of Boc-protected NMT (N-methyltyramine) was deprotonated with NaH and treated with BrCF2CF2Br (Halon 2402) giving the bromide 4, which was converted to corresponding fluoroalkylsilane 5. […] For that reason, it was generated in situ from 7-salt by addition of base in all subsequent syntheses.

Counter-ions that a name gives are not always drawn.

Turning to `CNCCc1ccc(OC(F)(F)C(F)(F)I2OC(C)(C)c3ccccc32)cc1` [Reagent 7, 2-(4-(2-(3,3-Dimethyl-1λ^3-benzo[d][1,2]iodaoxol-1 (3H)-yl)-1,1,2,2-tetrafluoroethoxy)phenyl)-N-methylethan-1-amine], the storage stability entry (isolated deprotected reagent, stored in a freezer) is “decomposed rapidly”.
As for `CN(CCc1ccc(OC(F)(F)C(F)(F)I2OC(C)(C)c3ccccc32)cc1)C(=O)OC(C)(C)C` [Reagent 7-Boc, tert-Butyl (4-(2-(3,3-dimethyl-1λ^3-benzo[d][1,2]iodaoxol-1 (3H)-yl)-1,1,2,2-tetrafluoroethoxy)phenethyl)-(methyl)carbamate], the storage stability entry (brown oil, at −20° C.) is recorded as “stable for at least for six months”.
Consider `CNCCc1ccc(OC(F)(F)C(F)(F)I2OC(C)(C)c3ccccc32)cc1` [Reagent 7-salt, 3,3-Dimethyl-1-(1,1,2,2-tetrafluoro-2-(4-(2-(methylammonio)ethyl)phenoxy)ethyl)-2,3-dihydro-1H-1λ^3-benzo[d][1,2]iodaoxol-2-ium bis(trifluoroacetate)], for which the storage stability entry (crystalline, at room temperature) is “appeared stable”.

For the origin of these results see patent US10669250B2, “Hypervalent iodine CF2CF2X reagents and their use” (ETH Zurich, priority 2014, dated 2020).
